According to patent publication US4017611A, “Control of insects with 3-hydroxymethacrylic acid methyl ester dimethylthionophosphate” (priority 1970, dated 1977):
Where two headings read alike, the source gives them in different places.

Experiments:
[1] = test system: one day old houseflies (Musca domestica); test: Ingestion test with one day old houseflies; assay type: in vivo; conditions: read-out: % flies killed; for mortality at 0.4 ppm: 0.4 ppm in 30% sugar water; for mortality at 0.8 ppm: 0.8 ppm in 30% sugar water; for mortality at 1.5 ppm: 1.5 ppm in 30% sugar water; for mortality at 3 ppm: 3 ppm in 30% sugar water; for mortality at 6 ppm: 6 ppm in 30% sugar water; for mortality at 12 ppm: 12 ppm in 30% sugar water; for mortality at 25 ppm: 25 ppm in 30% sugar water; for mortality at 50 ppm: 50 ppm in 30% sugar water; for mortality at 100 ppm: 100 ppm in 30% sugar water
Procedure: Dilution series were manufactured with water. As solvent for the test preparations and similarly as a nutrition agent for the flies, 30% sugar water was used which had been coloured with chlorantin light red (as an attractant). The dilutions were tested with one day old houseflies. The 1, 2 and 4 hour controls enabled the speed of action to be determined. By means of the 24 hour control the limit concentration (action strength) could also be determined.

Sit. Granarius = test: Diffusion action in wheat (gas phase between wheat grains); assay type: in vivo; conditions: Sitophilus granarius, 168 h, 50 ppm treated wheat layer, read-out: Mortality in % after 7 days exposure time
Excerpt: A plexiglass box was divided by means of wire grids into ten vertical layers each 1 cm thick. Each compartment was filled with wheat grains. The first compartment contained wheat grains which had been treated with 50 ppm active agent (5% dusting agent). The remainder of the compartment contained untreated wheat. All the compartments were then supplied with grain weevils. The mortality was noted after 7 days exposure time and the results are expressed in the following table. Diffusion of active substance in gas phase between the wheat grains

[2] = Vapour pressure and diffusion (general statement)
Trogoderma granarium (L) = test: Durability (disinfection) test on wheat, larvae of the Khapra beetle; assay type: in vivo; conditions: 168 h, read-out: % animals dead after one week exposure
Excerpt: (§1) Wheat was shaken up with 5% dusting agent and then mixed again repeatedly with untreated wheat at half the poison concentration. In this way, a dilution series with concentrations of 50 - 25 - 12 - 6 - 3 - 1.5 ppm was obtained.
(§2) Since the test is repeated once per month, the desired information is obtained concerning the residual effect. In the test, the important pests in storage protection were chosen, viz, the grain weevil (Sitophilus granarius) - lesser grain borer (Rhizopertha dominica) and the larvae of the Khapra beetle (Trogoderma granarium), which are very resistant to insecticides. 20 test insects were tested per concentration and the results are expressed in the following table.

Sitophilus granarius = test: Durability (disinfection) test on wheat, grain weevil; assay type: in vivo; conditions: 168 h, read-out: % animals dead after one week exposure
Excerpt: as §1, §2

Rhizopertha dominica = test: Durability (disinfection) test on wheat, lesser grain borer; assay type: in vivo; conditions: Rhyzopertha dominica, 168 h, read-out: % animals dead after one week exposure
Excerpt: as §1, §2

[3] = Acute oral toxicity (warm blooded toxicity) in rats; conditions: rat, in vivo, po

COC(=O)C(C)=COP(=S)(OC)OC [Compound I, 3-hydroxymethacrylic acid methyl ester dimethylthionophosphate]
mortality at 0.4 ppm ([1]; 1 hour): 0%
mortality at 0.4 ppm ([1]; 2 hours): 0%
mortality at 0.4 ppm ([1]; 4 hours): 0%
mortality at 0.4 ppm ([1]; 24 hours): 0%
mortality at 0.8 ppm ([1]; 1 hour): 0%
mortality at 0.8 ppm ([1]; 2 hours): 0%
mortality at 0.8 ppm ([1]; 4 hours): 0%
mortality at 0.8 ppm ([1]; 24 hours): 0%
mortality at 1.5 ppm ([1]; 1 hour): 0%
mortality at 1.5 ppm ([1]; 2 hours): 0%
mortality at 1.5 ppm ([1]; 4 hours): 0%
mortality at 1.5 ppm ([1]; 24 hours): 10%
mortality at 3 ppm ([1]; 1 hour): 10%
mortality at 3 ppm ([1]; 2 hours): 20%
mortality at 3 ppm ([1]; 4 hours): 50%
mortality at 3 ppm ([1]; 24 hours): 90%
mortality at 6 ppm ([1]; 1 hour): 30%
mortality at 6 ppm ([1]; 2 hours): 40%
mortality at 6 ppm ([1]; 4 hours): 100%
mortality at 6 ppm ([1]; 24 hours): 100%
mortality at 12 ppm ([1]; 1 hour): 40%
mortality at 12 ppm ([1]; 2 hours): 70%
mortality at 12 ppm ([1]; 4 hours): 100%
mortality at 12 ppm ([1]; 24 hours): 100%
mortality at 25 ppm ([1]; 1 hour): 40%
mortality at 25 ppm ([1]; 2 hours): 70%
mortality at 25 ppm ([1]; 4 hours): 100%
mortality at 25 ppm ([1]; 24 hours): 100%
mortality at 50 ppm ([1]; 1 hour): 60%
mortality at 50 ppm ([1]; 2 hours): 90%
mortality at 50 ppm ([1]; 4 hours): 100%
mortality at 50 ppm ([1]; 24 hours): 100%
mortality at 100 ppm ([1]; 1 hour): 100%
mortality at 100 ppm ([1]; 2 hours): 100%
mortality at 100 ppm ([1]; 4 hours): 100%
mortality at 100 ppm ([1]; 24 hours): 100%
mortality at 50 ppm (Sit. Granarius; distance 1 cm): 100%
mortality at 50 ppm (Sit. Granarius; distance 2 cm): 100%
mortality at 50 ppm (Sit. Granarius; distance 3 cm): 100%
mortality at 50 ppm (Sit. Granarius; distance 4 cm): 100%
mortality at 50 ppm (Sit. Granarius; distance 5 cm): 90%
mortality at 50 ppm (Sit. Granarius; distance 6 cm): 15%
diffusion into the gaps between stored foodstuffs [2]: diffuses easily
vapour pressure ([2]; compared to compounds of French Pat. No. 1530955, PHOSDRIN or DDVP): increased vapour pressure
mortality at 1.5 ppm (Trogoderma granarium (L); wheat fresh): 90%
mortality at 1.5 ppm (Trogoderma granarium (L); wheat stored 1 month): 0%
mortality at 1.5 ppm (Trogoderma granarium (L); wheat stored 2 months): 0%
mortality at 1.5 ppm (Trogoderma granarium (L); wheat stored 3 months): 0%
mortality at 3 ppm (Trogoderma granarium (L); wheat fresh): 95%
mortality at 3 ppm (Trogoderma granarium (L); wheat stored 1 month): 10%
mortality at 3 ppm (Trogoderma granarium (L); wheat stored 2 months): 0%
mortality at 3 ppm (Trogoderma granarium (L); wheat stored 3 months): 0%
mortality at 6 ppm (Trogoderma granarium (L); wheat fresh): 100%
mortality at 6 ppm (Trogoderma granarium (L); wheat stored 1 month): 85%
mortality at 6 ppm (Trogoderma granarium (L); wheat stored 2 months): 30%
mortality at 6 ppm (Trogoderma granarium (L); wheat stored 3 months): 10%
mortality at 12 ppm (Trogoderma granarium (L); wheat fresh): 100%
mortality at 12 ppm (Trogoderma granarium (L); wheat stored 1 month): 95%
mortality at 12 ppm (Trogoderma granarium (L); wheat stored 2 months): 85%
mortality at 12 ppm (Trogoderma granarium (L); wheat stored 3 months): 55%
mortality at 25 ppm (Trogoderma granarium (L); wheat fresh): 100%
mortality at 25 ppm (Trogoderma granarium (L); wheat stored 1 month): 100%
mortality at 25 ppm (Trogoderma granarium (L); wheat stored 2 months): 100%
mortality at 25 ppm (Trogoderma granarium (L); wheat stored 3 months): 100%
mortality at 50 ppm (Trogoderma granarium (L); wheat fresh): 100%
mortality at 50 ppm (Trogoderma granarium (L); wheat stored 1 month): 100%
mortality at 50 ppm (Trogoderma granarium (L); wheat stored 2 months): 100%
mortality at 50 ppm (Trogoderma granarium (L); wheat stored 3 months): 100%
mortality at 1.5 ppm (Sitophilus granarius; wheat fresh): 100%
mortality at 1.5 ppm (Sitophilus granarius; wheat stored 1 month): 90%
mortality at 1.5 ppm (Sitophilus granarius; wheat stored 2 months): 100%
mortality at 1.5 ppm (Sitophilus granarius; wheat stored 3 months): 70%
mortality at 3 ppm (Sitophilus granarius; wheat fresh): 100%
mortality at 3 ppm (Sitophilus granarius; wheat stored 1 month): 100%
mortality at 3 ppm (Sitophilus granarius; wheat stored 2 months): 100%
mortality at 3 ppm (Sitophilus granarius; wheat stored 3 months): 95%
mortality at 6 ppm (Sitophilus granarius; wheat fresh): 100%
mortality at 6 ppm (Sitophilus granarius; wheat stored 1 month): 100%
mortality at 6 ppm (Sitophilus granarius; wheat stored 2 months): 100%
mortality at 6 ppm (Sitophilus granarius; wheat stored 3 months): 100%
mortality at 12 ppm (Sitophilus granarius; wheat fresh): 100%
mortality at 12 ppm (Sitophilus granarius; wheat stored 1 month): 100%
mortality at 12 ppm (Sitophilus granarius; wheat stored 2 months): 100%
mortality at 12 ppm (Sitophilus granarius; wheat stored 3 months): 100%
mortality at 25 ppm (Sitophilus granarius; wheat fresh): 100%
mortality at 25 ppm (Sitophilus granarius; wheat stored 1 month): 100%
mortality at 25 ppm (Sitophilus granarius; wheat stored 2 months): 100%
mortality at 25 ppm (Sitophilus granarius; wheat stored 3 months): 100%
mortality at 50 ppm (Sitophilus granarius; wheat fresh): 100%
mortality at 50 ppm (Sitophilus granarius; wheat stored 1 month): 100%
mortality at 50 ppm (Sitophilus granarius; wheat stored 2 months): 100%
mortality at 50 ppm (Sitophilus granarius; wheat stored 3 months): 100%
mortality at 1.5 ppm (Rhizopertha dominica; wheat fresh): 20%
mortality at 1.5 ppm (Rhizopertha dominica; wheat stored 1 month): 0%
mortality at 1.5 ppm (Rhizopertha dominica; wheat stored 2 months): 15%
mortality at 1.5 ppm (Rhizopertha dominica; wheat stored 3 months): 0%
mortality at 3 ppm (Rhizopertha dominica; wheat fresh): 90%
mortality at 3 ppm (Rhizopertha dominica; wheat stored 1 month): 5%
mortality at 3 ppm (Rhizopertha dominica; wheat stored 2 months): 10%
mortality at 3 ppm (Rhizopertha dominica; wheat stored 3 months): 15%
mortality at 6 ppm (Rhizopertha dominica; wheat fresh): 100%
mortality at 6 ppm (Rhizopertha dominica; wheat stored 1 month): 60%
mortality at 6 ppm (Rhizopertha dominica; wheat stored 2 months): 40%
mortality at 6 ppm (Rhizopertha dominica; wheat stored 3 months): 15%
mortality at 12 ppm (Rhizopertha dominica; wheat fresh): 100%
mortality at 12 ppm (Rhizopertha dominica; wheat stored 1 month): 85%
mortality at 12 ppm (Rhizopertha dominica; wheat stored 2 months): 70%
mortality at 12 ppm (Rhizopertha dominica; wheat stored 3 months): 35%
mortality at 25 ppm (Rhizopertha dominica; wheat fresh): 100%
mortality at 25 ppm (Rhizopertha dominica; wheat stored 1 month): 100%
mortality at 25 ppm (Rhizopertha dominica; wheat stored 2 months): 80%
mortality at 25 ppm (Rhizopertha dominica; wheat stored 3 months): 75%
mortality at 50 ppm (Rhizopertha dominica; wheat fresh): 100%
mortality at 50 ppm (Rhizopertha dominica; wheat stored 1 month): 100%
mortality at 50 ppm (Rhizopertha dominica; wheat stored 2 months): 100%
mortality at 50 ppm (Rhizopertha dominica; wheat stored 3 months): 100%
LD50 [3]: 500 mg/kg
